Values of other authors, collected in US12194002B2, “Compositions and methods to improve the therapeutic benefit of suboptimally administered chemical compounds including substituted hexitols such as dibromodulcitol” (priority 2011, dated 2025).

How the values were obtained:
[1] = target: JAK2V617F mutant of the JAK2 tyrosine kinase (Homo sapiens, UniProt O60674, V617F)
Chain of JAK2V617F mutant of the JAK2 tyrosine kinase (O60674 whole entry V617F): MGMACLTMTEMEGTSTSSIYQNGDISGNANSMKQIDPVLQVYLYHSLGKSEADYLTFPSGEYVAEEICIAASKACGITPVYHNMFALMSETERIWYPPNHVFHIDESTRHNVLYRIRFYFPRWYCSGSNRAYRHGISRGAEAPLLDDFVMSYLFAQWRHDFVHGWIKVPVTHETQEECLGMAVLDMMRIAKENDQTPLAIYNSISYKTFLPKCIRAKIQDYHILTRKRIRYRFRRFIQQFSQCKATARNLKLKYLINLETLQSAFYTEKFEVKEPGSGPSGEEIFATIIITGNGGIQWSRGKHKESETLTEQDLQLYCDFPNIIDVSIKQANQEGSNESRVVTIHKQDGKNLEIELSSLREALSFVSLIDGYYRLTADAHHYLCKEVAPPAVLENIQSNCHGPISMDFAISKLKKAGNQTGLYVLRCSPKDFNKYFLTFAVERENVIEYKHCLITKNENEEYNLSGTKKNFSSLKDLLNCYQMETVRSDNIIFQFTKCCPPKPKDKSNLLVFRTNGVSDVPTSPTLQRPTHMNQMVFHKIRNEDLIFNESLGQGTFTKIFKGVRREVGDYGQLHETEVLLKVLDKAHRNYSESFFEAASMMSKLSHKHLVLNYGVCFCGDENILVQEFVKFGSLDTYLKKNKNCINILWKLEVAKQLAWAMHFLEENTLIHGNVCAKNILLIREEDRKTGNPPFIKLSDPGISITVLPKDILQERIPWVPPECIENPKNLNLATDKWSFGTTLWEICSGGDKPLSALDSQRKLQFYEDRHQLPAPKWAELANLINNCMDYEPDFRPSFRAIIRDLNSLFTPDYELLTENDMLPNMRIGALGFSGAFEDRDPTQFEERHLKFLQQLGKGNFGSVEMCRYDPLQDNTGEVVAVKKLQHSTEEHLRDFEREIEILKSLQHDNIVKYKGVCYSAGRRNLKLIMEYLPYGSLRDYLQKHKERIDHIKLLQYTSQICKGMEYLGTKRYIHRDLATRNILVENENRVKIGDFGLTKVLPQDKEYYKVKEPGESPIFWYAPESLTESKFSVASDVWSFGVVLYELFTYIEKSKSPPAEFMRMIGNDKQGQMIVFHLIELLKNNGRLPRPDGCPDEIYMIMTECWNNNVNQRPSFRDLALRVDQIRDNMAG

Structure (SMILES)	Inhibition of JAK2V617F mutant [1]	Absorption by the oral route
C#Cc1cccc(Nc2ncnc3cc(OCCOC)c(OCCOC)cc23)c1 [Tarceva, N-(3-ethynylphenyl)-6,7-bis(2-methoxyethoxy)quinazolin-4-amine]	potent inhibitor	
O[C@H]([C@H](O)[C@@H](O)CBr)[C@H](O)CBr [dibromodulcitol]		rapid and fairly complete
